# Read-outs that look alike come from different tables or passages of the source.
# Legend:
# [1] = system: MCF7 (Breast cancer); experiment: NCI-60 screen (SRB, 48 h); conditions: Homo sapiens
# [2] = system: NCI-H460 (NSC lung cancer); experiment: NCI-60 screen (SRB, 48 h)
# [3] = system: COLO 205 (Colon cancer); experiment: NCI-60 screen (SRB, 48 h); conditions: Homo sapiens
# [4] = system: SK-OV-3 (Ovarian cancer); experiment: NCI-60 screen (SRB, 48 h); conditions: Homo sapiens
# [5] = system: Melanoma subpanel; experiment: NCI-60 screen, subpanel; conditions: Homo sapiens
# [6] = system: HCC-2998 (Colon cancer); experiment: NCI-60 screen (SRB, 48 h); conditions: Homo sapiens
# [7] = system: UACC-62 (Melanoma); experiment: NCI-60 screen (SRB, 48 h); conditions: Homo sapiens
# [8] = system: ACHN (Renal cancer); experiment: NCI-60 screen (SRB, 48 h); conditions: Homo sapiens
# [9] = system: Breast cancer subpanel; experiment: NCI-60 screen, subpanel; conditions: Homo sapiens
# [10] = system: RXF 393 (Renal cancer); experiment: NCI-60 screen (SRB, 48 h); conditions: Homo sapiens
# [11] = system: BT-549 (Breast cancer); experiment: NCI-60 screen (SRB, 48 h); format: cell-based; conditions: Homo sapiens
# [12] = system: UO-31 (Renal cancer); experiment: NCI-60 screen (SRB, 48 h); conditions: Homo sapiens
# [13] = system: M14 (Melanoma); experiment: NCI-60 screen (SRB, 48 h); conditions: Homo sapiens
# [14] = system: HOP-62 (NSC lung cancer); experiment: NCI-60 screen (SRB, 48 h); conditions: Homo sapiens
# [15] = system: Renal Cancer subpanel; experiment: NCI-60 screen, subpanel; conditions: Homo sapiens
# [16] = system: OVCAR-3 (Ovarian cancer); experiment: cells; conditions: Homo sapiens
# [17] = system: A498 (Renal cancer); experiment: NCI-60 screen (SRB, 48 h); conditions: Homo sapiens
# [18] = system: SW-620 (Colon cancer); experiment: NCI-60 screen (SRB, 48 h); conditions: Homo sapiens
# [19] = system: PC-3 (Prostate cancer); experiment: NCI-60 screen (SRB, 48 h); conditions: Homo sapiens
# [20] = system: panel of approximately 60 cancer cell lines; experiment: NCI-60 screen (SRB, 48 h), full panel
# [21] = system: Ovarian Cancer subpanel; experiment: NCI-60 screen, subpanel; conditions: Homo sapiens
# [22] = system: NCI-H322M (NSC lung cancer); experiment: NCI-60 screen (SRB, 48 h); conditions: Homo sapiens
# [23] = system: SK-MEL-2 (Melanoma); experiment: NCI-60 screen (SRB, 48 h); conditions: Homo sapiens
# [24] = system: NCI-H226 (NSC lung cancer); experiment: NCI-60 screen (SRB, 48 h)
# [25] = system: SNB-75 (CNS cancer); experiment: NCI-60 screen (SRB, 48 h); conditions: Homo sapiens
# [26] = system: LOX IMVI (Melanoma); experiment: NCI-60 screen (SRB, 48 h); format: cell-based; conditions: Homo sapiens
# [27] = system: NSC lung cancer subpanel; experiment: NCI-60 screen, subpanel; conditions: Homo sapiens
# [28] = system: DU-145 (Prostate cancer); experiment: NCI-60 screen (SRB, 48 h); conditions: Homo sapiens
smiles,measurement,setting,value
"C[C@H]1[C@H](C)CC[C@]2(CO)CC[C@]3(C)C(=CC[C@@H]4[C@@]5(C)CCCNC(C)(C)[C@@H]5CC[C@]43C)[C@H]12 [Compound 4, azepanouvaol]",GI50,[1]; MCF7,1.58 µM
same,IC (TGI),"[1]; MCF7, 48 h, read-out: TGI",3.39 µM
same,CC50,"[1]; MCF7, read-out: LC50",7.28 µM
same,GI50,"[2]; Homo sapiens, NCI-H460",1.78 µM
same,IC (TGI),"[2]; Homo sapiens, NCI-H460, 48 h, read-out: TGI",3.35 µM
same,CC50,"[2]; Homo sapiens, NCI-H460, read-out: LC50",6.3 µM
same,Growth % of the Most Sensitive Cell Lines,"[2]; NCI-H460, 1 dose 10 µM",−83.30%
same,GI50,[3]; COLO 205,1.74 µM
same,IC (TGI),"[3]; COLO 205, 48 h, read-out: TGI",3.46 µM
same,CC50,"[3]; COLO 205, read-out: LC50",6.86 µM
same,GI50,[4]; SK-OV-3,2.54 µM
same,IC (TGI),"[4]; SK-OV-3, 48 h, read-out: TGI",3.97 µM
same,CC50,"[4]; SK-OV-3, read-out: LC50",35.2 µM
same,IC (TGI),"[5]; 48 h, read-out: TGI MG_MID",3.32 µM
same,GI50,[5]; read-out: GI50 MG_MID,1.74 µM
same,CC50,[5]; read-out: LC50 MG_MID,6.36 µM
same,GI50,[6]; HCC 2998,1.75 µM
same,IC (TGI),"[6]; HCC 2998, 48 h, read-out: TGI",3.46 µM
same,CC50,"[6]; HCC 2998, read-out: LC50",6.85 µM
same,GI50,[7]; UACC-62,1.85 µM
same,IC (TGI),"[7]; UACC-62, 48 h, read-out: TGI",3.35 µM
same,CC50,"[7]; UACC-62, read-out: LC50",6.06 µM
same,GI50,[8],1.69 µM
same,IC (TGI),"[8]; 48 h, read-out: TGI",3.06 µM
same,CC50,[8]; read-out: LC50,5.54 µM
same,IC (TGI),"[9]; 48 h, read-out: TGI MG_MID",3.69 µM
same,GI50,[9]; read-out: GI50 MG_MID,1.74 µM
same,CC50,[9]; read-out: LC50 MG_MID,12.6 µM
same,GI50,[10]; RXF 393,1.81 µM
same,IC (TGI),"[10]; RXF 393, 48 h, read-out: TGI",3.51 µM
same,CC50,"[10]; RXF 393, read-out: LC50",6.79 µM
same,GI50,[11]; BT-549,1.55 µM
same,IC (TGI),"[11]; BT-549, 48 h",2.96 µM
same,GI50,[12]; UO-31,1.54 µM
same,IC (TGI),"[12]; UO-31, 48 h, read-out: TGI",2.99 µM
same,CC50,"[12]; UO-31, read-out: LC50",5.79 µM
same,GI50,[13]; M14,1.61 µM
same,IC (TGI),"[13]; M14, 48 h, read-out: TGI",3.12 µM
same,CC50,"[13]; M14, read-out: LC50",6.04 µM
same,GI50,[14]; HOP-62,1.81 µM
same,IC (TGI),"[14]; HOP-62, 48 h, read-out: TGI",3.49 µM
same,CC50,"[14]; HOP-62, read-out: LC50",6.52 µM
same,IC (TGI),"[15]; 48 h, read-out: TGI MG_MID",3.2 µM
same,GI50,[15]; read-out: GI50 MG_MID,1.47 µM
same,CC50,[15]; read-out: LC50 MG_MID,6.11 µM
same,GI50,[16]; OVCAR-3,1.83 µM
same,IC (TGI),"[16]; OVCAR-3, 48 h, read-out: TGI",3.42 µM
same,CC50,"[16]; OVCAR-3, read-out: LC50",6.39 µM
same,GI50,[17]; A498,1.63 µM
same,IC (TGI),"[17]; A498, 48 h, read-out: TGI",3.29 µM
same,CC50,"[17]; A498, read-out: LC50",6.63 µM
same,GI50,[18]; SW-620,1.79 µM
same,IC (TGI),"[18]; SW-620, 48 h, read-out: TGI",3.54 µM
same,CC50,"[18]; SW-620, read-out: LC50",7.03 µM
same,GI50,[19]; PC-3,1.55 µM
same,IC (TGI),"[19]; PC-3, 48 h, read-out: TGI",2.97 µM
same,CC50,"[19]; PC-3, read-out: LC50",5.66 µM
same,Positive Cytostatic Effect (cell lines with percent growth 0 to 50 / total),[20]; 1 dose 10 µM,18/59
same,Positive Cytotoxic Effect (cell lines with percent growth < 0 / total),[20]; 1 dose 10 µM,40/59
same,number of cancer cell lines the compound was active against,[20]; 1 dose 10 µM,57 cell lines
same,activity at 10 µM,"[20]; Homo sapiens, 48 h, read-out: Mean Growth, %",-31.9%
same,activity at 10 µM,"[20]; Homo sapiens, 48 h, read-out: Range of Growth, %",-99 to 23%
same,IC (TGI),"[20]; Homo sapiens, 48 h, read-out: TGI MG_MID60, average over all cell lines",3.31 µM
same,GI50,"[20]; Homo sapiens, read-out: GI50 MG_MID60",1.65 µM
same,GI50,"[20]; Homo sapiens, read-out: GI50 against all human tumor cell lines",< 3 µM
same,GI50,"[20]; Homo sapiens, read-out: GI50 against the most sensitive cell lines",0.2 to 0.94 µM
same,CC50,"[20]; Homo sapiens, read-out: LC50 MG_MID60, average over all cell lines",7.64 µM
same,IC (TGI),"[21]; 48 h, read-out: TGI MG_MID",3.59 µM
same,GI50,[21]; read-out: GI50 MG_MID,1.91 µM
same,CC50,[21]; read-out: LC50 MG_MID,11.4 µM
same,GI50,[22],1.73 µM
same,IC (TGI),"[22]; 48 h, read-out: TGI",3.19 µM
same,CC50,[22]; read-out: LC50,5.89 µM
same,GI50,[23]; SK-MEL-2,1.9 µM
same,IC (TGI),"[23]; SK-MEL-2, 48 h, read-out: TGI",3.63 µM
same,CC50,"[23]; SK-MEL-2, read-out: LC50",6.91 µM
same,GI50,"[24]; Homo sapiens, NCI-H226",2.07 µM
same,IC (TGI),"[24]; Homo sapiens, NCI-H226, 48 h, read-out: TGI",4.25 µM
same,Growth % of the Most Sensitive Cell Lines,"[24]; NCI-H226, 1 dose 10 µM",−99.04%
same,GI50,[25]; SNB-75,1.49 µM
same,IC (TGI),"[25]; SNB-75, 48 h, read-out: TGI",2.9 µM
same,CC50,"[25]; SNB-75, read-out: LC50",5.63 µM
same,GI50,[26],1.59 µM
same,IC (TGI),[26]; 48 h,3.05 µM
same,activity at 10 µM,"[26]; 48 h, 1 dose 10 µM, read-out: Growth % of the Most Sensitive Cell Lines",-94.9%
same,CC50,[26]; read-out: LC50 (the source's name),5.84 µM
same,IC (TGI),"[27]; 48 h, read-out: TGI MG_MID",3.4 µM
same,GI50,[27]; read-out: GI50 MG_MID,1.74 µM
same,CC50,[27]; read-out: LC50 MG_MID,6.37 µM
same,GI50,[28]; DU-145,1.72 µM
same,IC (TGI),"[28]; DU-145, 48 h, read-out: TGI",3.14 µM
same,CC50,"[28]; DU-145, read-out: LC50",5.75 µM

# Reference: article PMC7914897, “Cytotoxic Potential of a-Azepano- and 3-Amino-3,4-SeCo-Triterpenoids” (International Journal of Molecular Sciences, 2021)
